Experimental data from patent US11542316B2, “S-Arrestin peptides and therapeutic uses thereof” (APITOPE INTERNATIONAL NV, priority 2017, dated 2023).
Ends that are not written are not given here.

Tested on: SAg-specific hybridoma cells / T cell line with VAVY APC
Experiment: Antigen Processing Independent Presentation System (APIPS) assay, fresh or fixed VAVY APC
Format: cell-based, DR3 mice
Settings: DR3 hybridoma clone (IL-2, 48 h) or T cell line (IFN-γ, 24 h)
Protocol: (§1) FIG. 2: identification of apitopes within HIP-115. (A) DR3 mice were immunized with SAg and hybridomas were generated. 5×10^4 SAg-specific hybridoma cells were cultured with 5×10^4 fresh or fixed commercial APC (VAVY) cells. T cell proliferation was measured by IL-2 ELISA on supernatants collected after 48 h. The graph represents the mean of duplicate measurements±SEM. (B) DR3 mice were immunized with HIP-115 and a T cell line was established. Ten days after immunization the LN and spleens were harvested and cultured with different concentrations of peptide (0.1-1-2.5 and 5 μg/ml); 2×10^6 cells/ml APC+1×10^6 cells/ml CD4 T cells per well. At day 7 the cells were re-stimulated with the same concentrations of peptide. On day 14 an APIPS test was done using commercial APC (VAVY). After 24 h, antigen-induced T cell activation was measured by IFN-γ ELISA and shown as IFN-γ concentration (pg/ml). The graph represents the mean of duplicate measurements±SEM. LN, lymph nodes; APC, Antigen presenting cell; APIPS, Antigen Processing Independent Presentation System.
as §1, with “3:” for “2:”, “HIP-241125.” for “HIP-115.”, “HIP-241125+HIP-24DG” for “HIP-115”
(§2) FIG. 5: Identification of apitopes within HIP-17GN. DR3 mice were immunized with HIP-17GN and a T cell line was established. Ten days after immunization the LN and spleens were harvested and cultured with different concentrations of peptide (0.1-1-2.5 and 5 μg/ml); 2×10^6 cells/ml APC+1×10^6 cells/ml CD4 T cells per well. At day 7 the cells were re-stimulated with the same concentrations of peptide. On day 14 an APIPS test was done using commercial APC (VAVY). After 24 h, antigen-induced T cell activation was measured by IFN-γ ELISA and shown as OD values. The graph represents the mean of triplicate measurements±SEM. LN, lymph nodes; APC, Antigen presenting cell; APIPS, Antigen Processing Independent Presentation System.
as §2, with “6:” for “5:”, “HIP-12AK.” for “HIP-17GN.”, “HIP-12AK” for “HIP-17GN”, “IFN-γ concentration (pg/ml).” for “OD values.”, “duplicate” for “triplicate”
Antigen-specific clones or TCL were tested for their reactivity to the peptides, presented by fixed or not fixed (fresh) cells (VAVY or MGAR) (=APCs). 5×10^4 cells from the individual clones were cultured with 10 μg/ml peptide and 5×10^4 fixed or fresh APCs. […]

| Substance | behaves as apitope (response to peptide presented by fresh or fixed APC) |
| --- | --- |
| KKISRDKSVTI-NH2 [HIP-115NE1, KKISRDKSVTI] | behave as apitopes |
| LTLLPLLANNRERRGIALDGKIKHEDTNLASSTIIKEG-NH2 [HIP-241125] | behave as apitopes |
| LTLLPLLANNRERRGIALDG-NH2 [HIP-24HM] | behave as apitopes |
| ERRGIALDGKIKH-NH2 [HIP-11AC1, ERRGIALDGKIKH] | behave as apitopes |
| NRERRGIALDGKIKHED-NH2 [HIP-11AC, NRERRGIALDGKIKHED] | behave as apitopes |
| HIP-17K1-KKK: '-KKK' version (3 lysines before and after the sequence) of HIP-17K1; its sequence is not printed (KKKTFRRDLYFSRVQKKK) | behave as apitopes |
| KKKVLGILVSYQIKVKLTKKK-NH2 [HIP-12E-KKK] | behave as apitopes |
| LTFRRDLYFSRVQVY-NH2 [HIP-17J, LTFRRDLYFSRVQVY] | behave as apitopes |
| GILVSYQIKVK-NH2 [HIP-12G1, GILVSYQIKVK] | behave as apitopes |
| FKKISRDKSVTIY-NH2 [HIP-115NE2, FKKISRDKSVTIY] | behave as apitopes |
| HVIFKKISRDKSVTIYLGN-NH2 [HIP-115NE, HVIFKKISRDKSVTIYLGN] | behave as apitopes |
| VIGLTFRRDLYFSRVQVYPPVG-NH2 [HIP-17GN] | behave as apitopes |
